ChEMBL document CHEMBL1143396, “Additivity in the analysis and design of HIV protease inhibitors” (J Med Chem, 2009)

Target: Human immunodeficiency virus type 1 protease (Human immunodeficiency virus 1, UniProt Q72874, Q7K)
Experiment: Inhibition of HIV1 protease Q7K mutant by FRET method

SMILES | Ki (read-out: Ki) [nM] | Ki (read-out: pKi (converted)) [nM]
COc1ccc(S(=O)(=O)N(CC(C)C)C[C@@H](O)[C@H](Cc2ccccc2)NC(=O)/C=C(\C)C(F)(F)F)cc1 | 0.39 | 0.389
C/C(=C\C(=O)N(C)[C@@H](Cc1ccccc1)[C@H](O)CN(Cc1cccs1)S(=O)(=O)c1cc(F)c(F)cc1F)C(F)(F)F | 52.6 | 52.5
CC[C@H](C)CN(C[C@@H](O)[C@H](Cc1ccccc1)NC(=O)[C@@H]1CN(c2cccc(C(C)=O)c2)C(=O)O1)S(=O)(=O)c1ccc(OC)cc1 | 0.232 | 0.234
CCC(=O)CCC(=O)N[C@@H](Cc1ccccc1)[C@H](O)CN(C[C@H](C)CC)S(=O)(=O)c1ccc2ncsc2c1 | 0.063 | 0.0631
COc1ccc(S(=O)(=O)N(CC(C)C)C[C@@H](O)[C@H](Cc2ccccc2)NC(=O)[C@H](C)NC(C)=O)cc1 | 0.117 | 0.117
COc1ccc(S(=O)(=O)N(CC(C)C)C[C@@H](O)[C@H](Cc2ccccc2)NC(=O)[C@@H](NC(C)=O)C(C)C)cc1 | 0.084 | 0.0832
CCCCCN(C[C@@H](O)[C@H](Cc1ccccc1)NC(=O)CCC(=O)CC)S(=O)(=O)c1ccc2ncsc2c1 | 1.62 | 1.62
COc1ccc(S(=O)(=O)N(CC(C)C)C[C@@H](O)[C@H](Cc2ccccc2)NC(=O)c2cccc(O)c2)cc1 | 0.14 | 0.141
CCCCCN(C[C@@H](O)[C@H](Cc1ccccc1)NC(=O)CCC(=O)CC)S(=O)(=O)c1ccc(OC)cc1 | 4.17 | 4.17
CCCCCN(C[C@@H](O)[C@H](Cc1ccccc1)NC(=O)c1cccc(O)c1)S(=O)(=O)c1ccc(OC)cc1 | 1.45 | 1.45
CC[C@@H](C)CN(C[C@@H](O)[C@H](Cc1ccccc1)NC(=O)c1cccc(O)c1)S(=O)(=O)c1ccc(OC)cc1 | 0.117 | 0.117
C[C@H](O)CN(C[C@@H](O)[C@H](Cc1ccccc1)NC(=O)C[C@H]1C=CCC1)S(=O)(=O)c1ccco1 | 259 | 257
CCC(=O)CCC(=O)N[C@@H](Cc1ccccc1)[C@H](O)CN(CC(C)C)S(=O)(=O)c1ccc(OC)cc1 | 0.24 | 0.24
CCC(=O)CCC(=O)N[C@@H](Cc1ccccc1)[C@H](O)CN(CC(C)C)S(=O)(=O)c1ccc2ncsc2c1 | 0.12 | 0.12
COc1cccc(S(=O)(=O)N(C[C@H]2CCCO2)C[C@@H](O)[C@H](Cc2ccccc2)NC(=O)[C@@H]2CN(c3cccc(F)c3)C(=O)O2)c1 | 150 | 151
CCCCCN(C[C@@H](O)[C@H](Cc1ccccc1)NC(=O)c1cccc(O)c1)S(=O)(=O)c1ccc2ncsc2c1 | 0.309 | 0.309
CC(=O)N[C@H](C(=O)N[C@@H](Cc1ccccc1)[C@H](O)CN(CC(C)C)S(=O)(=O)c1ccc2ncsc2c1)C(C)C | 0.099 | 0.1
CCCCCN(C[C@@H](O)[C@H](Cc1ccccc1)NC(=O)[C@@H](NC(C)=O)C(C)C)S(=O)(=O)c1ccc(OC)cc1 | 0.038 | 0.038
CC[C@H](C)CN(C[C@@H](O)[C@H](Cc1ccccc1)NC(=O)c1ccc(O)c(O)c1)S(=O)(=O)c1ccc(OC)cc1 | 0.38 | 0.38
CC[C@@H](C)CN(C[C@@H](O)[C@H](Cc1ccccc1)NC(=O)[C@@H](NC(C)=O)C(C)C)S(=O)(=O)c1ccc2ncsc2c1 | 0.057 | 0.0575
COc1ccc(S(=O)(=O)N(CC(C)C)C[C@@H](O)[C@H](Cc2ccccc2)NC(=O)/C=C/C(C)=O)cc1 | 0.17 | 0.17
CCCCCN(C[C@@H](O)[C@H](Cc1ccccc1)NC(=O)C[C@@H](O)CC)S(=O)(=O)c1ccc(OC)cc1 | 0.86 | 0.851

SMILES | Ki (read-out: Ki) [nM] | Ki (read-out: pKi (converted)) [nM]
CCCCCN(C[C@@H](O)[C@H](Cc1ccccc1)NC(=O)[C@@H](O)C(C)C)S(=O)(=O)c1ccc(OC)cc1 | 2.48 | 2.45
CC[C@H](O)CC(=O)N[C@@H](Cc1ccccc1)[C@H](O)CN(CC(C)C)S(=O)(=O)c1ccc(OC)cc1 | 0.37 | 0.372
CCCCCN(C[C@@H](O)[C@H](Cc1ccccc1)NC(=O)[C@@H](O)C(C)C)S(=O)(=O)c1ccc2ncsc2c1 | 0.82 | 0.813
CC[C@H](O)CC(=O)N[C@@H](Cc1ccccc1)[C@H](O)CN(CC(C)C)S(=O)(=O)c1ccc2ncsc2c1 | 0.134 | 0.135
COc1ccc(S(=O)(=O)N(CC(C)C)C[C@@H](O)[C@H](Cc2ccccc2)NC(=O)C2(C(N)=O)CC2)cc1 | 0.173 | 0.174
CC[C@@H](C)CN(C[C@@H](O)[C@H](Cc1ccccc1)NC(=O)[C@@H](O)C(C)C)S(=O)(=O)c1ccc(OC)cc1 | 0.617 | 0.617
CC[C@@H](C)CN(C[C@@H](O)[C@H](Cc1ccccc1)NC(=O)C[C@@H](O)CC)S(=O)(=O)c1ccc(OC)cc1 | 0.34 | 0.339
COc1ccc(S(=O)(=O)N(CC(C)C)C[C@@H](O)[C@H](Cc2ccccc2)Nc2cccc(F)c2C)cc1 | 0.093 | 0.0933
CC[C@@H](C)CN(C[C@@H](O)[C@H](Cc1ccccc1)NC(=O)C[C@@H](O)CC)S(=O)(=O)c1ccc2ncsc2c1 | 0.067 | 0.0676
CCCCCN(C[C@@H](O)[C@H](Cc1ccccc1)NC(=O)C1(C(N)=O)CC1)S(=O)(=O)c1ccc(OC)cc1 | 0.79 | 0.794
CCCCCN(C[C@@H](O)[C@H](Cc1ccccc1)NC(=O)C1(C(N)=O)CC1)S(=O)(=O)c1ccc2ncsc2c1 | 0.21 | 0.209
CC[C@@H](C)CN(C[C@@H](O)[C@H](Cc1ccccc1)NC(=O)C1(C(N)=O)CC1)S(=O)(=O)c1ccc(OC)cc1 | 0.21 | –
CCCCCN(C[C@@H](O)[C@H](Cc1ccccc1)NC(=O)C[C@@H](O)CC)S(=O)(=O)c1ccc2ncsc2c1 | 0.7 | 0.708
CC(C)CN(C[C@@H](O)[C@H](Cc1ccccc1)NC(=O)[C@@H](O)C(C)C)S(=O)(=O)c1ccc2ncsc2c1 | 0.29 | 0.288
CC[C@H](C)CN(C[C@@H](O)[C@H](Cc1ccccc1)NC(=O)[C@@H]1CN(c2cccc(C(C)=O)c2)C(=O)O1)S(=O)(=O)c1ccc2ncsc2c1 | 0.019 | 0.0191
COc1cccc(S(=O)(=O)N(C[C@H]2CCCO2)C[C@@H](O)[C@H](Cc2ccccc2)NC(=O)[C@@H]2CN(c3ccccc3)C(=O)O2)c1 | 42 | 41.7
CC[C@@H](C)CN(C[C@@H](O)[C@H](Cc1ccccc1)NC(=O)[C@@H](NC(C)=O)C(C)C)S(=O)(=O)c1ccc(OC)cc1 | 0.033 | 0.0331
CC[C@H](C)CN(C[C@@H](O)[C@H](Cc1ccccc1)NC(=O)c1cccc(F)c1C)S(=O)(=O)c1ccc2ncsc2c1 | 0.033 | 0.0331
CC[C@H](C)CN(C[C@@H](O)[C@H](Cc1ccccc1)NC(=O)[C@H](C)NC(C)=O)S(=O)(=O)c1ccc(OC)cc1 | 0.046 | 0.0457
CC(C)CN(C[C@@H](O)[C@H](Cc1ccccc1)NC(=O)C1(C(N)=O)CC1)S(=O)(=O)c1ccc2ncsc2c1 | 0.115 | 0.115
COc1ccc(S(=O)(=O)N(CC(C)C)C[C@@H](O)[C@H](Cc2ccccc2)NC(=O)[C@@H](O)C(C)C)cc1 | 1.88 | 1.86
CC[C@@H](C)CN(C[C@@H](O)[C@H](Cc1ccccc1)NC(=O)C1(C(N)=O)CC1)S(=O)(=O)c1ccc2ncsc2c1 | 0.132 | 0.132
